One assay deals with T1, MAGL (Homo sapiens, UniProt Q99685).
T1 sequence (Q99685 1-303): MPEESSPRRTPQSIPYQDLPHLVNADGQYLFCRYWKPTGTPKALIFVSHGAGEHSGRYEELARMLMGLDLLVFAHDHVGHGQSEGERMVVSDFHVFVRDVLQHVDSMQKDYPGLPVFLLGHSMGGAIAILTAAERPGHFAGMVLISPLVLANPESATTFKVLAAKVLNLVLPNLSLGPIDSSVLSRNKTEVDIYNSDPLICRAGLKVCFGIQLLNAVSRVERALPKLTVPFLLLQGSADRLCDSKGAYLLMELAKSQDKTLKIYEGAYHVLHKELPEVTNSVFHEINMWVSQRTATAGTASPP
Put plainly: 2-Arachidonoylglycerol-based fluorescence assay for DH-463. It is filed as biochemical. The protocol:
The natural substrate assays were performed as reported previously[80],[81]. All chemicals and reagents were purchased from Sigma-Aldrich, unless mentioned otherwise. […] 2-Arachidonoylglycerol was from Cayman Chemical. All measurements were performed in n = 4 or n = 8 for controls, with Z’ ≥ 0.6.

In a further assay the target is T2, D3R (Homo sapiens, UniProt P35462).
T2 construct: expressed in transfected cells; host or cells: HEK 293 (microscopy), HEK 293T (BRET)
Put plainly: BRET-based Gi1-activation assay in HEK 293T cells. It counts as cell-based. The text has this: The next day we replaced the medium with modified Kreb’s Ringer medium and performed BRET experiments using a Thermo Scientific Varioskan Flash multimode plate reader similarly as previously described. […] To calculate the BRET response, we first subtracted the BRET ratio of cells coexpressing the untagged β1 subunit from the BRET ratio of cells coexpressing Venus-β1. Then we corrected the baseline BRET ratio and subtracted the BRET ratio of vehicle-treated cells from the average BRET ratio of stimulus-treated cells. All BRET measurements were performed in triplicates.
For orientation: In BRET a luciferase serves as donor, and the signal depends on an acceptor being close.

The target of assay [1] is T3, D3R in the Islands of Calleja (Mus musculus, UniProt P30728).
T3 construct: from tissue; host or cells: mouse brain (Islands of Calleja, ventral and dorsal striatum); acute slices or fresh-frozen cryosections
Put plainly: In vivo competitive drug-binding measurement (cariprazine i.p., then Fluo-CAR labeling of acute slices). As to conditions: cariprazine 1 mg/kg i.p., 2 h. The protocol:
Male 26–33-days-old C57BL/6 mice were intraperitoneally injected with 1 mg/kg cariprazine or an equal volume of vehicle (0.9% saline + 1% Tween80). After injection (2 h), pharmacological tissue labeling was carried out similarly to the previous experiments. […] Slices were rinsed three times with ACSF and fixed overnight with 4% PFA. Slices were either processed for correlated confocal and STORM imaging or for conventional confocal imaging.

Assay [2] concerns the target T4, CB1R (Homo sapiens, UniProt P21554). Description: Ligand-binding assay, affinity of fluo-cannabinoid for CB1R (Supplementary Table S1).
Assay [3] concerns the target T4, CB1R. It is filed as cell-based. Set-up: expressed in transfected cells; host or cells: HEK 293T. As to conditions: for cAMP reduction (%): single experiments.
Another assay has as its target T5, D2R (Homo sapiens, UniProt P14416).
T5 construct: expressed in transfected cells; host or cells: HEK 293
Description: Fluo-cariprazine PharmacoSTORM signal in D2R-expressing cells (Supplementary Fig. S6d). It counts as binding.

The next assay deals with α7-nAchR-HA (Homo sapiens, UniProt P36544).
Where [4] appears, read: log(agonist) vs. response, variable slope.

Where “and” joins values, the source holds several entries; their conditions need not be identical. Equal entries are not always repeated. Where two headings read alike, the source gives them in different places.

T2 sequence (P35462 whole entry): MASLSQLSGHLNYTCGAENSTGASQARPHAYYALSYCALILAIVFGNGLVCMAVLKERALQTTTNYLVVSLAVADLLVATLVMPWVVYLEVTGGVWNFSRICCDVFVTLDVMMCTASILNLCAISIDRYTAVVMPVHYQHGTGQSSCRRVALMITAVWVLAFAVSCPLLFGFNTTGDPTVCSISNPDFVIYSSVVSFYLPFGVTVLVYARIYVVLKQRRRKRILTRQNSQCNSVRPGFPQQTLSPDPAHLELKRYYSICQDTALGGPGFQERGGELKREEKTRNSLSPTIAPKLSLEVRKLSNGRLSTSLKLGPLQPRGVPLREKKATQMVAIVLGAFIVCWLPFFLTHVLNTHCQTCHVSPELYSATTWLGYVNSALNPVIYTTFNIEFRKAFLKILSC
T4 sequence (P21554 whole entry): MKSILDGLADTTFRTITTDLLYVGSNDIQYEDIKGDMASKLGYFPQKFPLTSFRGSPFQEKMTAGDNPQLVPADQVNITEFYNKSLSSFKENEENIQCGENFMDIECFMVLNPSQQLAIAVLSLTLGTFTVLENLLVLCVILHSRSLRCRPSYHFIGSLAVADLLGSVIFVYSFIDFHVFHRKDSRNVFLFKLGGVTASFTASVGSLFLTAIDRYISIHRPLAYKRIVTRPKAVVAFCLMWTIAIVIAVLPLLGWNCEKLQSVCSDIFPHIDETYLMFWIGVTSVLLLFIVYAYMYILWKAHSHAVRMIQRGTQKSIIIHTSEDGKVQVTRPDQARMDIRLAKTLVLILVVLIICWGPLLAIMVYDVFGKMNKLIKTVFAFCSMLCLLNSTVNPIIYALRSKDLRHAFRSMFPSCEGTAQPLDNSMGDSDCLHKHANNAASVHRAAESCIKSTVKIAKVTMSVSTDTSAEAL
T5 sequence (P14416 whole entry): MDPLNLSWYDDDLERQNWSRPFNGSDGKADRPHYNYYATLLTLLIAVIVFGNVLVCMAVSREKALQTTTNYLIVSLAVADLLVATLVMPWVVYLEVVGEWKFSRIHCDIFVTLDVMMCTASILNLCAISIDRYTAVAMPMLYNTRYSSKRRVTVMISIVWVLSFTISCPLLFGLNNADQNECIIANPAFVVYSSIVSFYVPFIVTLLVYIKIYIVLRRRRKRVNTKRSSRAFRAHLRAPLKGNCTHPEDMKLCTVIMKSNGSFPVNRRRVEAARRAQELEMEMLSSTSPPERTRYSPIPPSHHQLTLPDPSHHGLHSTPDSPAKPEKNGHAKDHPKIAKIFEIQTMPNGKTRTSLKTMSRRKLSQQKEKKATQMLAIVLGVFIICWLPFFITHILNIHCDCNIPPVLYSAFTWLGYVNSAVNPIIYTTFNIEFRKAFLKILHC
T3 sequence (P30728 whole entry): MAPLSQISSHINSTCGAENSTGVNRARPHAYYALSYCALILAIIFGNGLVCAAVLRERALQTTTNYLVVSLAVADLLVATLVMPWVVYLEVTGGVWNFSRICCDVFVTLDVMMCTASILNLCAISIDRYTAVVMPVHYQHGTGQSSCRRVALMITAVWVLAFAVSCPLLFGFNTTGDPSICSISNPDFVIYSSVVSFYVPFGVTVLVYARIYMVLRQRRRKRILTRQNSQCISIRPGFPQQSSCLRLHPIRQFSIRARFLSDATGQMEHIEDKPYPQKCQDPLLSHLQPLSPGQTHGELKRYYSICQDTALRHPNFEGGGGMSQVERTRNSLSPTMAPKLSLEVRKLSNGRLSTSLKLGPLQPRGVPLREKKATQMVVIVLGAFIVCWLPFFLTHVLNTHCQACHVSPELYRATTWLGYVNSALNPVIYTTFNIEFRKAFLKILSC
Sequence of α7-nAchR-HA (P36544 23-502): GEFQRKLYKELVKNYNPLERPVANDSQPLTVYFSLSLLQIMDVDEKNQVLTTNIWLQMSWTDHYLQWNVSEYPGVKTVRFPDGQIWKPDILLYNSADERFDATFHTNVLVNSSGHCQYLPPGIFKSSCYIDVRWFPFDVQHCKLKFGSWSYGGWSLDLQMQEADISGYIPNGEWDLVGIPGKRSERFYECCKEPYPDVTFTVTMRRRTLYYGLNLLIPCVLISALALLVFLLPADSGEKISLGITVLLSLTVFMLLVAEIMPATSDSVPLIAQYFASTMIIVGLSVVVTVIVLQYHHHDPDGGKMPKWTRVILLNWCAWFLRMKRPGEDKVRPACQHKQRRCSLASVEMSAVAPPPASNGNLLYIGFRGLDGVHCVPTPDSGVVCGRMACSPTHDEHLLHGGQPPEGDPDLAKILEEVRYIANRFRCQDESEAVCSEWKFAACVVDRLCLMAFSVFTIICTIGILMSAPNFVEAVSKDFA
Description for D2R: Generation of N-terminally EGFP-tagged mouse CB1R was previously described[8]. The coding sequence of monoacylglycerol lipase (MAGL) was amplified with mMGL_fw and mMGL_rev primers using a mouse brain cDNA library as a template. The PCR product was digested with HindIII and BamHI enzymes and cloned into pcDNA3.1 backbone. GFP-MGL was constructed by subcloning the open reading frame of MAGL into pAcGFP1-C1 vector following HindIII/BamHI digestion. […] The amplified DNA was inserted into pcDNA3.1 vector between the BamHI and XhoI restriction sites. TMEM35 in pCMV6 vector was from Origene (RC209790). The pGloSensor™-22F cAMP plasmid was from Promega. The plasmid encoding CB1R was generated by inserting the coding sequence of human CB1R into pCAGIG vector. The plasmids encoding Gi1 subunits (αi1, β1, and γ2) were from the cDNA Resource Center. We created Gαi1–Rluc8 using overlap exchange PCR, Rluc8 was inserted into Gαi1 between residue 91 and 92 with SGGGGS linkers similar to a previous design[77]. Venus–β1 was created by replacing YFP with Venus in YFP–β1 using restriction digestion, YFP–β1 plasmid construct was described previously[78].
For microscopic experiments, cells were seeded one day before transfection on poly-D-lysine-coated coverslips in 24-well culture plates. Coverslips were cleaned with extensive 2 M NaOH and 70% ethanol washing steps prior to use. Transient transfection was done with Lipofectamine 2000 (Thermo Fischer) according to the manufacturer’s protocol. After transfection (20–28 h), pharmacological treatment was applied and then combined with immunolabeling. The full procedure was optimized for each investigated protein. In the case of D3R-, CB1R-, and α7-nAchR-expressing cells, all labeling and washing steps were executed in Hanks’ balanced salt solution (Sigma-Aldrich H6648) on live cells, and in Dulbecco’s Phosphate Buffered Saline (Corning, 21-031-CV) on fixed cells. The labeling steps with antibodies, ligands, or fixatives were followed by three washing steps. […] Unless otherwise stated, we used CF568-labeled secondary antibodies.
The HA-D3R-expressing cells were live-stained with anti-HA primary and secondary antibodies for 10 min at room temperature. […] Cells were fixed in 4% PFA for 10 min before imaging. For Supplementary Fig. S5g, Cy5-labeled secondary antibody was applied, without fluorescent ligand treatment. For fluo-cannabinoid binding experiments, all steps were executed at room temperature. […] MAGL pharmacological labeling was performed in culture medium in a 5% CO2 atmosphere at 37 °C. […] Before immunolabeling, cells were washed with 100% methanol three times for 10 min and were blocked with 5% normal donkey serum (NDS) in 0.1 M phosphate buffer (PB; pH 7.4), for 30 min. Anti-GFP immunolabeling was done in 0.1 M PB and immunostained cells were postfixed with 4% PFA before imaging. In the case of α7-nAChR experiments, its chaperon protein, NACHO (TMEM35) was co-transfected in a 10 to 1 receptor:chaperon ratio in order to enhance cell-surface expression of the ion channel[79]. MLA pretreatment and Alexa647-bungarotoxin labeling were done at 4 °C for 20 min. After pharmacological labeling, the cells were fixed with 4% PFA, and subsequent anti-HA-immunolabeling was done at room temperature. Immunolabeling was followed by post-fixation.
To analyze the number of localization points (LPs) in membranes of cultured cells, we merged the dSTORM images obtained from pharmacolabeling (PharmacoSTORM) and immunolabeling (ImmunoSTORM). […]

Broadly, the IC50 is the concentration that inhibits the measured activity by half. On to `CN1/C(=C/C=C/C=C/C2=[N+](CCCCCC(=O)NCc3cn(CCOc4ccc(C(c5ccc(Cl)cc5)N5CCN(C(=O)OC(C(F)(F)F)C(F)(F)F)CC5)cc4)nn3)c3ccccc3C2(C)C)C(C)(C)c2ccccc21.[Cl-]` (centres unmarked) [DH-463], for which the “HILLSLOPE (best-fit)” value on MAGL is given as -0,7836. The “MAGL activity (%), mean” value on MAGL (10^-5 M) is listed as 5.023%; at MAGL (10^-6 M) it was 10.8061%; on MAGL (10^-7 M) it was 27.8239%; on MAGL (10^-8 M), 51.3279%; at MAGL (10^-9 M) it was 91.5194%; at MAGL (10^-10 M), 105.132%. Moreover, the “LOGIC50 (best-fit)” value on MAGL (concentration in M) is -7,938. The “BOTTOM (best-fit), MAGL activity” value at MAGL (log(inhibitor) vs. response, variable slope) was 7,823%. The IC50 at MAGL (read-out: IC50 (best-fit)) turned out to be 11.5 nM.
What is called EC50 is the concentration that produces a half-maximal response. For the molecule `CCCN1CCO[C@@H]2c3cc(O)ccc3OC[C@H]21` [PD128907], the “Gi1-BRET response (%, norm. to pretreatment)” value at D3R (PD 128907 10-6.5 M, vehicle pretreatment) was 106.065% and 96.3019% and 97.7639%; at D3R (PD 128907 10-7.5 M, vehicle pretreatment) it was 94.4647% and 90.0327% and 83.0176%; at D3R (PD 128907 10-8.5 M, vehicle pretreatment) it was 62.6732% and 52.2099% and 77.0199%; at D3R (PD 128907 10-9.5 M, vehicle pretreatment), 23.5448% and 22.9857% and 15.0109%; on D3R (PD 128907 10^-6 M, vehicle pretreatment), 100%; at D3R (PD 128907 10^-7 M, vehicle pretreatment), 92.6877% and 91.1582% and 95.9579%. Further, the “Gi1-BRET response (%, norm. to pretreatment)” value at D3R (PD 128907 10^-8 M, vehicle pretreatment) was 89.6043% and 74.7508% and 92.6073%; on D3R (PD 128907 10^-9 M, vehicle pretreatment) it was 56.1354% and 47.8674% and 57.7701%. Besides, the “TOP (best-fit), Gi1-BRET response” value on D3R (PD 128907, vehicle pretreatment) is reported as 95,84%. Besides, the “LOGEC50 (best-fit)” value on D3R (PD 128907, vehicle pretreatment, concentration in M) is reported as -8,980. Also, the EC50 at D3R (vehicle pretreatment, n = 3, read-out: EC50 of PD128907) came to 1.05 nM.
`CN(C)C(=O)N[C@H]1CC[C@H](CCN2CCN(c3cccc(Cl)c3Cl)CC2)CC1` [cariprazine]: in assay [1], the “effect on fluo-cariprazine signal in the hilar subregion of the Islands of Calleja” value is reported as “completely eliminated”. The “Fluo-CAR STORM density (LPs/μm2)” value in assay [1] (slices with 30 nM Fluo-CAR, Islands of Calleja, per animal) is 0.8583 LPs/μm2 and 0.5531 LPs/μm2 and 1.2207 LPs/μm2 and 0.9766 LPs/μm2.
The term Ki denotes a dissociation constant, usually derived from enzyme kinetics or from competition with a known ligand. The Emax is the size of the effect at its maximum, as opposed to the concentration needed. Turning to `CCCCCCC(C)(C)c1cc(O)c2c(c1)OC(C)(C)c1ccc(CNCCCCCCNC(=O)CCCCC[N+]3=C(/C=C/C=C/C=C4/N(C)c5ccc(S(=O)(=O)O)cc5C4(C)C)C(C)(C)c4cc(S(=O)(=O)[O-])ccc43)cc1-2` [fluo-cannabinoid], the Ki at CB1R [2] worked out at 3.5 nM. For the same molecule, the “HILLSLOPE (best-fit)” value at CB1R [3] is recorded as 0,9981. For the same molecule, the “Span (best-fit), cAMP reduction” value at CB1R [3] is reported as 37,53%. Moreover, the “cAMP reduction (%)” value is 31.4472% and 32.8666% and 33.3129% and 25.9155% and 23.0595% at CB1R [3] (10-6.5 M); -1.6297% and 1.0916% and -1.1492% and -4.3119% and 0.7084% on CB1R [3] (10-8.5 M); 35.6911% and 25.5164% and 35.8634% and 19.8904% and 28.6228% on CB1R [3] (10^-6 M); 0% on CB1R [3] (10^-9 M). For the same molecule, the “LOGEC50 (best-fit)” value on CB1R [3] (concentration in M) is on record as -7,482. The molecule further had an Emax at CB1R [3] (in vitro cAMP assay on CB1R) of 36.1%. In addition, the “BOTTOM (best-fit), cAMP reduction” value on CB1R [3] (setting [4]) is given as -1,444%. In addition, the “TOP (best-fit), cAMP reduction” value on CB1R [3] (setting [4]) is recorded as 36,09%. Moreover, the EC50 at CB1R [3] (read-out: EC50 (best-fit)) is 33 nM.
Consider `CN(CCCNC(=O)CCCCC[N+]1=C(/C=C/C=C/C=C2/N(C)c3ccc(S(=O)(=O)O)cc3C2(C)C)C(C)(C)c2cc(S(=O)(=O)[O-])ccc21)C(=O)N[C@H]1CC[C@@H](CCN2CCN(c3cccc(Cl)c3Cl)CC2)CC1` [fluo-cariprazine], for which the “PharmacoSTORM LPs / ImmunoSTORM LPs (% of D3R), actual mean” value on D2R is 7,203%. Besides, on D2R (single experiments), the “PharmacoSTORM LPs / ImmunoSTORM LPs (% of D3R)” value is 3.466% and 8.432% and 4.243% and 12.6707%.
`CCN1C[C@]2(COC(=O)c3ccccc3N3C(=O)C[C@H](C)C3=O)CC[C@H](OC)[C@@]34[C@@H]5C[C@H]6[C@H](OC)[C@@H]5[C@](O)(C[C@@H]6OC)[C@@](O)([C@@H](OC)[C@H]23)[C@@H]14` [methyllycaconitine]: the “effect on PharmacoSTORM signal of Alexa647-α-bungarotoxin” value at α7-nAchR-HA is recorded as “fully prevented”.

These data come from article PMC8586358 (Nature Communications, 2021).
